According to US7432107B2, “Cardiac hormones for assessing cardiovascular risk” (Roche Diagnostics Operations, Inc., priority 2005, dated 2008):

Experiments:
[1] = cited from earlier work
[2] = design: species or system patients; conditions: human, in vivo, 24 weeks
Procedure: NT-proBNP was measured in baseline serum samples from 433 patients entering a prospective study, designed primarily to define the therapeutic effect of a novel metallo-proteinase inhibitor in osteoarthritis (OA). Cardiovascular adverse events (CV-AEs) were monitored and related to the concomitant use of cox-2 inhibitors or NSAIDs or prostaglandin metabolism influencing steroids. In a retrospective analysis the question was evaluated whether CV AEs in patients receiving anti-inflammatory drugs could have been predicted from elevated NT-proBNP values. […]
Permitted rescue anti-inflammatory drugs including cox-2 inhibitors and NSAIDs or steroids for this trial were aspirin, diclofenac sodium, diflunisal, etodolac, fenoprofen, ibuprofen, ketoprofen, naproxen, nabumetone, oxaprozin, piroxicam, sodium salicylate, choline magnesium salicylate, celecoxib, rofecoxib or tolmetin. […] Patients were not enquired actively for the occurrence of angina pectoris, signs or symptoms of congestive heart failure, or arterial hypertension, nor was the ECG routinely evaluated for the occurrence of new Q-waves or new bundle branch block. […]

[3] = 48 hours at room temperature or at 4° Celsius; cited from earlier work
[4] = cited from earlier work; remark: listed apart in the source

Molecule: CS(=O)(=O)c1ccc(C2=C(c3ccccc3)C(=O)OC2)cc1 [Rofecoxib]
- additional cardiovascular incidents (myocardial infarction, stroke) ([1]; 25 mg compared with placebo, after 18 months of follow-up): 16 per 1,000 treated patients
- blood pressure levels ([1]; 25 mg versus placebo, early post-observation phase): higher blood pressure levels
- rise in the rate of serious thromboembolic incidents ([1]; APPROVE study): 3.9 times

Molecule: CC(=O)Nc1ccc(O)cc1 [acetaminophen]
- Hazard Ratio of covariate (takes drug at baseline), time to CV adverse events [2]: 0.653

Molecule: BNP: active natriuretic hormone of 32 amino acids, cleaved from proBNP
- concentration loss on storage [3]: at least 20%
- in-vivo half-life ([4]; in vivo): 0.333 h

B1: NT-proBNP: N-terminal pro peptide of 76 amino acids, cleaved from proBNP; inactive counterpart of BNP (protein, UniProt P16860 27-102, looked up)
NT-proBNP: HPLGSPGSASDLETSGLQEQRNHLQGKLSELQVEQTSLEPLQESPRPTGVWKSREVATEGIRGHRKMVLYTLRAPR
modifications: NT-proBNP
- in-vivo half-life, longer than that of BNP ([4]; difference to BNP): 2 h
